Assay results as given in patent US20110306650A1 (Chiesi Farmaceutici S.p.A., priority 2010, published 2011).

Assay: compatibility with other active ingredients in pharmaceutical formulations
Assay type: physicochemical
Conditions: especially with formoterol; relative to glycopyrronium bromide

Structure (SMILES): C[N+]1(C)CCC(OC(=O)C(O)(c2ccccc2)C2CCCC2)C1.[Cl-] (stereo not shown) [glycopyrronium chloride]
- compatibility with other active ingredients: better compatibility
